A short description of data set [1]: Solution stability in aqueous solution (D2O), degradation measured by 1H-NMR. The procedure: Three separate 5 mg samples of the same batch of NaMN were completely dissolved without stirring in 0.5 ml of deuterated water (D2O), each in three separate NMR tubes. All three samples were analysed at the time of dissolution via ^1H-NMR for purity.
The first NMR tube was maintained at a temperature of 25° C. The second NMR tube was maintained at a temperature of 40° C. The third NMR tube was maintained at a temperature of 60° C. Degradation of the control NaMN was measured using ^1H-NMR. Degradation of the control NaMN in aqueous solutions was analyzed over a period of 36 weeks (see FIG. 1).
The stability of the salts I-001, I-002, I-003, and I-004 in aqueous solution phase was also tested. Following the same procedure described in the control NaMN, the respective solutions of I-001, I-002, I-003, and I-004 were maintained at 25° C. and analysed for 38 weeks.

Data set [2] has as its system COV434 cells. Description: NAD cell assay (NAD cycling method) in COV434 cells. The format is cell-based, human. Particulars: 200 uM, 4 hr; for Fold increase compared to NaMN (NAD level): NAD normalised to protein. The procedure: NAD levels were assayed based on the NAD cycling method of Zhu and Rand, PLoS One (2012), herein incorporated by reference. COV434 cells were maintained in 6 well plates and treated with the indicated compounds at a concentration of 200 uM for 4 hr. Media was removed, plates were washed in cold PBS and cells were scraped down in NAD extraction buffer containing 10 mM nicotinamide, 50 mM Tris HCl, 0.1% Triton X-100. Cells were homogenised by sonication for 5 seconds, and samples were centrifuged at 7,000 g for 5 min at 4 degrees. Aliquots were taken for later protein assay, and samples were then passed through 10 kDa amicon filters at 14,000 g, 30 min at 4 degrees to remove proteins from the sample. Each sample was measured in technical triplicate, with 25 μL sample added to 100 μL ADH cycling mix (0.2 mg/ml alcohol dehydrogenase enzyme, 2% ethanol, 100 mM Tris pH 8.5). Samples were allowed to cycle for 10 min at room temperature, followed by 50 μL addition of an MTT/PMS solution (0.1 mM phenazine methosulfate, 0.8 mM 3-(4,5-Dimethylthiazol-2-yl)-2,5-diphenyltetrazoliwn bromide), 100 mM Tris-HCl pH 8.5). Plates were then incubated for 15 min and absorbance was measured at 570 nm. NAD concentrations were extrapolated from a standard curve, and normalised to protein concentrations determined by BCA protein assay.

Molecules are shown by their SMILES.

Take `O=C([O-])c1ccc[n+]([C@@H]2O[C@H](COP(=O)([O-])[O-])[C@@H](O)[C@H]2O)c1.[Na+].[Na+]` [Compound I-003, Sodium 1-((2R,3R,4S,5R)-3,4-dihydroxy-5-((phosphonatooxy)methyl)-tetrahydrofuran-2-yl)pyridine-1-ium-3-carboxylate]: the “degradation in aqueous solution” value in data set [1] (7 weeks, 10 mg/mL) is “under 2%”. In data set [2], the “Fold increase compared to NaMN (NAD level)” value is 1.0 and the “Fold Increase compared to NaMN on a molar basis (NAD level)” value stood at 1.08.
In the case of `CC(=O)O[C@@H]1[C@H](OC(C)=O)[C@@H](COP(=O)([O-])O)O[C@H]1[n+]1cccc(C(=O)[O-])c1.[Na+]` [Compound I-008, Sodium 1-((2R,3R, 4R, 5R)-3,4-diacetoxy-5-(((hydrogenphosphonato)oxy)methyl)tetrahydrofuran-2-yl)pyridine-1-ium-3-carboxylate], in data set [2], the “Fold increase compared to NaMN (NAD level)” value was determined as 0.8 and the “Fold Increase compared to NaMN on a molar basis (NAD level)” value came to 0.99.
As for `O=C(O)c1ccc[n+]([C@@H]2O[C@H](COP(=O)(O)O)[C@@H](O)[C@H]2O)c1` [NaMN, nicotinic acid mononucleotide], the “degradation in aqueous solution” value is “about 12.3%” in data set [1] (25° C., week 10, D2O, 1H-NMR); 15.3% in data set [1] (40° C., week 2, D2O, 1H-NMR, study halted); 35% in data set [1] (60° C., after a week, D2O, 1H-NMR, study halted). Moreover, the “Fold increase compared to NaMN (NAD level)” value in data set [2] came to 1.0. In addition, in data set [2], the “Fold Increase compared to NaMN on a molar basis (NAD level)” value is 1.0.
Take `O=C([O-])c1ccc[n+]([C@@H]2O[C@H](COP(=O)([O-])O)[C@@H](O)[C@H]2O)c1.[Na+]` [Compound I-001, Sodium 1-((2R,3R,4S,5R)-5-(((hydrogenphosphonato)oxy)methyl)-3,4-dihydroxytetrahydrofuran-2-yl)pyridine-1-ium-3-carboxylate]: the “degradation in aqueous solution” value in data set [1] (7 weeks, 10 mg/mL) is reported as “under 2%”; in data set [1] (38 weeks, 10 mg/mL) it was 4.3%. In addition, the “Fold increase compared to NaMN (NAD level)” value in data set [2] stood at 3.0. Moreover, the “Fold Increase compared to NaMN on a molar basis (NAD level)” value in data set [2] is reported as 3.23.
`O=C([O-])c1ccc[n+]([C@@H]2O[C@H](COP(=O)([O-])O)[C@@H](O)[C@H]2O)c1.[K+]` [Compound I-002, Potassium 1-((2R,3R,4S,5R)-5-(((hydrogenphosphonato)oxy)methyl)-3,4-dihydroxytetrahydrofuran-2-yl)pyridine-1-ium-3-carboxylate]: the “degradation in aqueous solution” value in data set [1] (7 weeks, 10 mg/mL) is on record as “under 2%”; in data set [1] (24 weeks, 10 mg/mL), 4.7%. Besides, in data set [2], the “Fold increase compared to NaMN (NAD level)” value stood at 0.8. Moreover, in data set [2], the “Fold Increase compared to NaMN on a molar basis (NAD level)” value is on record as 0.84.
As to `O=C([O-])c1ccc[n+]([C@@H]2O[C@H](COP(=O)([O-])[O-])[C@@H](O)[C@H]2O)c1.[K+].[K+]` [Compound I-004, Potassium 1-((2R,3R,4S,5R)-3,4-dihydroxy-5-((phosphonatooxy)methyl)-tetrahydrofuran-2-yl)pyridine-1-ium-3-carboxylate], the “degradation in aqueous solution” value is “under 2%” in data set [1] (7 weeks, 10 mg/mL) and 2.6% in data set [1] (34 weeks, 10 mg/mL). For the same compound, the “Fold increase compared to NaMN (NAD level)” value in data set [2] worked out at 1.3. Further, the “Fold Increase compared to NaMN on a molar basis (NAD level)” value in data set [2] stood at 1.57.
Regarding `CC(=O)O[C@@H]1[C@H](OC(C)=O)[C@@H](COP(=O)([O-])O)O[C@H]1[n+]1cccc(C(=O)[O-])c1.[K+]` [Compound I-009, potassium 1-((2R,3R, 4R, 5R)-3,4-diacetoxy-5-(((hydrogenphosphonato)oxy)methyl)tetrahydrofuran-2-yl)pyridine-1-ium-3-carboxylate], in data set [2], the “Fold increase compared to NaMN (NAD level)” value came out at 1.0 and the “Fold Increase compared to NaMN on a molar basis (NAD level)” value amounted to 1.39.
In the case of `O=C([O-])c1ccc[n+]([C@@H]2O[C@H](COP(=O)([O-])[O-])[C@@H](O)[C@H]2O)c1.[K+].[Na+]` [Compound I-006, Potassium sodium 1-((2R,3R,4S,5R)-3,4-dihydroxy-5-((phosphonatooxy)methyl)tetrahydrofuran-2-yl)pyridine-1-ium-3-carboxylate], in data set [2], the “Fold increase compared to NaMN (NAD level)” value worked out at 2.3 and the “Fold Increase compared to NaMN on a molar basis (NAD level)” value is on record as 2.72.

The record behind these values is patent publication US10654883B2, “Inorganic salts of nicotinic acid mononucleotide as anti-aging agents” (Jumpstart Fertility Pty Ltd, priority 2018, dated 2020).
